Measured values taken from patent publication US20240207300A1, “COMBINATION THERAPIES INCLUDING MYT1 INHIBITORS” (Repare Therapeutics Inc., priority 2021, published 2024).

The compounds below were run against recombinant human Myt1 (Homo sapiens (Human), UniProt Q99640) (assay: Recombinant human Myt1 kinase ADP-Glo enzymatic assay). Conditions: recombinant human Myt1 18 nM, ATP 10 μM.
recombinant human Myt1, sequence (Q99640 whole entry): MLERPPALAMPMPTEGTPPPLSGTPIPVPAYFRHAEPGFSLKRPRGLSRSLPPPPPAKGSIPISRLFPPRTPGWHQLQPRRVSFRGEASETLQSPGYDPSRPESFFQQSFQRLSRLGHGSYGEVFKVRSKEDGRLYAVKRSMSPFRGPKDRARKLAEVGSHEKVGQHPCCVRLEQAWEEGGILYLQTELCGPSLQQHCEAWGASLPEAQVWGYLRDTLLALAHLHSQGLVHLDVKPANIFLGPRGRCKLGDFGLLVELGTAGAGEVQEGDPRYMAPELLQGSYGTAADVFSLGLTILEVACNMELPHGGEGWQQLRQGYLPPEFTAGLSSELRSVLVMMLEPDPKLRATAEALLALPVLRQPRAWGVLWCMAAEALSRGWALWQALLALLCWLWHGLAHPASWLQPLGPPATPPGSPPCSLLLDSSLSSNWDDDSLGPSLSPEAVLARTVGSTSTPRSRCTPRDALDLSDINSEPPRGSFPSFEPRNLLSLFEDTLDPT
Type: biochemical
Description: Detection of Myt1 kinase activity utilized a recombinant human Myt1 kinase assay measuring the hydrolysis of ATP using a commercially available ADP-Glo Assay (ADP-Glo™ Kinase Assay from Promega, 10 000 assays, #V9102). […] After this, 5 μL of compounds (diluted in reaction buffer to 0.5% DMSO) was added to the microplate and the plate was spun briefly and incubated at 22° C. for 15 minutes. Ultra-Pure Adenosine Triphosphate (ATP) solution (ADP-Glo kit from Promega) was diluted in reaction buffer and 5 μL was added to the microplate, spun down briefly and incubated for 60 minutes at 30° C. […] After the 60-minute incubation, 15 μL of ADP-Glo reagent was added and the plate was spun briefly and sealed and incubated in the dark for 40 minutes at 22° C. […] Luminescence was read using the Envision (250 ms integration). The IC50 and the % max inhibition were calculated for each inhibitor compound tested.
For `Cc1ccc(O)c(C)c1-n1c(N)c(C(N)=O)c2nc(-c3ccns3)cnc21` [Compound 41], the IC50 was under 10 nM. Compound `Cc1ccc(O)c(C)c1-n1c(N)c(C(N)=O)c2cc(Br)c(C)nc21` [Compound 187] has an IC50 of under 10 nM. Work on `Cc1ccc(O)c(C)c1-n1c(N)c(C(N)=O)c2nc(-c3ccc(F)cn3)cnc21` [Compound 64] yielded an IC50 of under 10 nM. `Cc1ccc(O)c(C)c1-n1c(N)c(C(N)=O)c2cccnc21` [Compound 328] gave an IC50 of under 10 nM. `Cc1ccc(O)c(C)c1-n1c(N)c(C(N)=O)c2nc(N3CCCCC3)cnc21` [Compound 81] gave an IC50 of under 10 nM. In the case of `Cc1ccc(O)cc1-n1c(N)c(C(N)=O)c2nc(C3=CCCN(C(=O)OC(C)(C)C)C3)ccc21` [Compound 26], the IC50 is reported as 2000 nM. `Cc1ccc(O)c(C)c1-n1c(N)c(C(N)=O)c2nc(C3(C(F)(F)F)CC3)cnc21` [Compound 198, 6-amino-5-(3-hydroxy-2,6-dimethyl-phenyl)-2-[1-(trifluoromethyl)cyclopropyl]pyrrolo[2,3-b]pyrazine-7-carboxamide] was tested, and the IC50 was under 10 nM. `Cc1ccc(O)c(C)c1-n1c(N)c(C(N)=O)c2cc(C(C)(C)O)cnc21` [Compound 131] gave an IC50 of under 10 nM. In the case of `Cc1ccc(O)c(C)c1-n1c(N)c(C(N)=O)c2nc(C3CC3)c(C)nc21` [Compound 100], the IC50 is reported as under 10 nM. `C=Cc1cnc2c(n1)c(C(N)=O)c(N)n2-c1c(C)ccc(O)c1C` [Compound 259] was tested, and the IC50 was under 10 nM. `Cc1ccc(O)c(C)c1-n1c(N)c(C(N)=O)c2cc(Br)c(C)nc21` (single isomer, unassigned) [Compound 188] was tested, and the IC50 was under 10 nM. Compound `Cc1ccc(O)c(C)c1-n1c(N)c(C(N)=O)c2nc(-c3nc4ccccc4s3)cnc21` [Compound 248] has an IC50 of under 10 nM. Work on `Cc1ccc(O)c(C)c1-n1c(N)c(C(N)=O)c2nc(-c3cncs3)cnc21` [Compound 37] yielded an IC50 of under 10 nM. For `Cc1ccc2c(C(N)=O)c(N)n(-c3c(C)ccc(O)c3C)c2n1` [Compound 193], the IC50 was under 10 nM. `Cc1ccc(O)c(C)c1-n1cc(C(N)=O)c2cc(C3CC3)cnc21` [Compound 143] gave an IC50 of under 10 nM. `Cc1ccc(O)c(C)c1-n1c(N)c(C(N)=O)c2nc(C3=CCCCC3)cnc21` [Compound 86] showed an IC50 of under 10 nM. `Cc1ccc(O)c(C)c1-n1c(N)c(C(N)=O)c2ncc(C#CC(C)O)nc21` (centres unmarked) [Compound 241] was tested, and the IC50 was 24 nM. `Cc1ccc(O)c(C)c1-n1c(N)c(C(N)=O)c2nc(-c3ccnnc3)cnc21` [Compound 250] gave an IC50 of under 10 nM. In the case of `Cc1ccc(O)c(C)c1-n1c(N)c(C(N)=O)c2cc(C#N)cnc21` [Compound 312], the IC50 is reported as under 10 nM. `Cc1ccc(O)c(C)c1-n1c(N)c(C(N)=O)c2nc(N3CCCC3)cnc21` [Compound 85] showed an IC50 of under 10 nM. `Cc1ccc(O)c(C)c1-n1c(N)c(C(N)=O)c2nc(-c3cn(C)cn3)cnc21` [Compound 76] gave an IC50 of under 10 nM. `Cc1ccc(O)c(Cl)c1-n1c(N)c(C(N)=O)c2cc(Cl)cnc21` [Compound 327] was tested, and the IC50 was under 10 nM. Compound `Cc1c(O)ccc(Cl)c1-n1c(N)c(C(N)=O)c2nc(-c3nccs3)cnc21` [Compound 42] has an IC50 of under 10 nM. Compound `Cc1ccc(O)c(C)c1-n1c(N)c(C(N)=O)c2ncc(C#CC3(O)CCOCC3)nc21` [Compound 231] has an IC50 of under 10 nM. `Cc1ccc(O)c(C)c1-n1c(N)c(C(N)=O)c2cc(Br)cnc21` [Compound 141] was tested, and the IC50 was under 10 nM. With `Cc1ccc(O)c(C)c1-n1c(N)c(C(N)=O)c2ncc(C#CC3OCCC3Cl)nc21` (centres unmarked) [Compound 233] the IC50 was 10 nM. `Cc1ccc(O)c(C)c1-n1c(N)c(C(N)=O)c2nc(N3CCC(C(=O)N(C)C)CC3)cnc21` [Compound 80] showed an IC50 of under 10 nM. `Cc1ccc(O)c(C)c1-n1c(N)c(S(C)(=O)=O)c2nc(-c3cnccn3)cnc21` [Compound 278] was tested, and the IC50 was over 5000 nM. `Cc1ccc(O)c(C)c1-n1c(N)c(C(N)=O)c2nc3c(nc21)CCCC3` [Compound 262] was tested, and the IC50 was under 10 nM. `C=C(C)c1cnc2c(n1)c(C(N)=O)c(N)n2-c1c(C)ccc(O)c1C` [Compound 202] gave an IC50 of under 10 nM. With `Cc1ccc(O)c(C)c1-n1c(N)c(C(N)=O)c2ncc(C#CC(C)O)nc21` (centres unmarked) [Compound 229] the IC50 was 52 nM. For `Cc1ccc(O)c(C)c1-n1c(N)c(C(N)=O)c2nc(C3CCCCC3)cnc21` [Compound 83], the IC50 was under 10 nM. For `Cc1nc2c(C(N)=O)c(N)n(-c3c(Cl)ccc(O)c3C)c2nc1C` [Compound 168], the IC50 was under 10 nM. `Cc1ccc(O)c(C)c1-n1c(N)c(C(N)=O)c2cc(C(C)C)cnc21` [Compound 138] gave an IC50 of under 10 nM. `CC(=O)N1CCN(c2cnc3c(n2)c(C(N)=O)c(N)n3-c2c(C)ccc(O)c2C)CC1` [Compound 87] showed an IC50 of under 10 nM. `Cc1ccc(O)c(C)c1-n1c(N)c(C(N)=O)c2ncc(C#CC3OCCC3O)nc21` (centres unmarked) [Compound 234] gave an IC50 of 14 nM. In the case of `Cc1ccc(O)c(C)c1-n1c(N)c(C(N)=O)c2nc(-c3nc(C)c(C)s3)cnc21` [Compound 32], the IC50 is reported as under 10 nM. For `Cc1ccc(O)c(C)c1-n1c(N)c(C(N)=O)c2nc(-c3ccnc(C(F)(F)F)c3)cnc21` [Compound 35, 6-amino-5-(3-hydroxy-2,6-dimethyl-phenyl)-2-[2-(trifluoromethyl)-4-pyridyl]pyrrolo[2,3-b]pyrazine-7-carboxamide], the IC50 was under 10 nM. With `Cc1ccc(O)c(C)c1-n1c(N)c(C(N)=O)c2nc(-c3ccccn3)cnc21` [Compound 34] the IC50 was under 10 nM. With `Cc1ccc(O)c(C)c1-n1c(N)c(C(N)=O)c2ncc(C#CCC3CCOCC3)nc21` [Compound 222] the IC50 was under 10 nM. With `Cc1ccc(O)c(C)c1-n1c(N)c(C(N)=O)c2nc(C(N)=O)cnc21` [Compound 220, 6-amino-5-(3-hydroxy-2,6-dimethyl-phenyl)pyrrolo[2,3-b]pyrazine-2,7-dicarboxamide] the IC50 was under 10 nM. For `Cc1ccc(O)c(C)c1-n1c(N)c(C(N)=O)c2cc(-c3ccccn3)cnc21` [Compound 295], the IC50 was under 10 nM. With `Cc1ccc(O)c(C)c1-n1c(N)c(C(N)=O)c2ncc(C#CC3(O)CCC(F)(F)CC3)nc21` [Compound 242, 6-amino-3-[2-(4,4-difluoro-1-hydroxy-cyclohexyl)ethynyl]-5-(3-hydroxy-2,6-dimethyl-phenyl)pyrrolo[2,3-b]pyrazine-7-carboxamide] the IC50 was under 10 nM. For `COCCOCC#Cc1cnc2c(n1)c(-c1c(C)ccc(O)c1C)c(N)n2C(N)=O` [Compound 240], the IC50 was 191 nM. `CCN(CC)c1cnc2c(n1)c(C(N)=O)c(N)n2-c1c(C)ccc(O)c1C` [Compound 88] was tested, and the IC50 was under 10 nM. For `Cc1ccc(O)c(Cl)c1-n1c(N)c(C(N)=O)c2nc(C3CC3)cnc21` [Compound 104], the IC50 was under 10 nM. Work on `Cc1ccc(O)c(C)c1-n1c(N)c(C(N)=O)c2cc(Br)c(C)nc21` (single isomer, unassigned) [Compound 189] yielded an IC50 of 1010 nM. Compound `Cc1ccc(O)c(C)c1-n1c(N)c(C(N)=O)c2cc(I)cnc21` [Compound 319] has an IC50 of under 10 nM. In the case of `Cc1ccc(O)c(C)c1-n1c(N)c(C(N)=O)c2cc(N3CCCC3=O)cnc21` [Compound 298], the IC50 is reported as under 10 nM. `Cc1ccc(O)c(C)c1-n1c(N)c(C(N)=O)c2nc(C3CCC3)cnc21` [Compound 173, 6-amino-2-cyclobutyl-5-(3-hydroxy-2,6-dimethyl-phenyl)pyrrolo[2,3-b]pyrazine-7-carboxamide] was tested, and the IC50 was under 10 nM. For `Cc1ccc(O)c(C)c1-n1c(N)c(C(N)=O)c2c(Cl)c(Cl)cnc21` [Compound 316], the IC50 was under 10 nM. `Cc1ccc(O)c(C)c1-n1c(N)c(C(N)=O)c2cc(C3=CCOCC3)cnc21` [Compound 304] showed an IC50 of under 10 nM. `Cc1ccc(O)c(C)c1-n1c(N)c(C(N)=O)c2nc(C3=CCC(C(=O)N(C)C)CC3)cnc21` (centres unmarked) [Compound 58] was tested, and the IC50 was under 10 nM. `Cc1ccc(O)c(Br)c1-n1c(N)c(C(N)=O)c2cc(Cl)cnc21` [Compound 289] was tested, and the IC50 was under 10 nM. With `Cc1ccc(O)c(C)c1-n1c(N)c(C(N)=O)c2nc(-c3nccs3)c(C)nc21` [Compound 31, 6-amino-5-(3-hydroxy-2,6-dimethyl-phenyl)-3-methyl-2-thiazol-2-yl-pyrrolo[2,3-b]pyrazine-7-carboxamide] the IC50 was under 10 nM. In the case of `Cc1ccc(O)c(C)c1-n1c(N)c(C(N)=O)c2nc(-c3ccncn3)cnc21` [Compound 57], the IC50 is reported as under 10 nM. Compound `Cc1ccc(O)c(C)c1-n1c(N)c(C(N)=O)c2nc(-c3cnccn3)cnc21` [Compound 38] has an IC50 of under 10 nM. `CNC(=O)C1CCN(c2cnc3c(n2)c(C(N)=O)c(N)n3-c2c(C)ccc(O)c2C)CC1` [Compound 46, 6-amino-5-(3-hydroxy-2,6-dimethyl-phenyl)-2-[4-(methylcarbamoyl)-1-piperidyl]pyrrolo[2,3-b]pyrazine-7-carboxamide] gave an IC50 of under 10 nM. `Cc1ccc(O)c(C)c1-n1c(N)c(C(N)=O)c2nc(N3CC4CCC(C3)O4)cnc21` [Compound 92] was tested, and the IC50 was under 10 nM. `Cc1ccc(O)c(C)c1-n1c(N)c(C(N)=O)c2nc(C(C)(C)F)cnc21` [Compound 178, 6-amino-2-(1-fluoro-1-methyl-ethyl)-5-(3-hydroxy-2,6-dimethyl-phenyl)pyrrolo[2,3-b]pyrazine-7-carboxamide] gave an IC50 of under 10 nM. Work on `Cc1ccc(O)c(C)c1-n1c(N)c(C(N)=O)c2nc(-c3c[nH]cn3)cnc21` [Compound 65] yielded an IC50 of under 10 nM. With `Cc1ccc(O)c(C)c1-n1c(N)c(C(N)=O)c2c(C)c(Cl)cnc21` [Compound 313] the IC50 was under 10 nM. For `Cc1ccc(O)c(C)c1-n1c(N)c(C(N)=O)c2cc(-c3nccs3)cnc21` [Compound 308], the IC50 was under 10 nM. For `Cc1ccc(-c2cnc3c(n2)c(C(N)=O)c(N)n3-c2c(C)ccc(O)c2C)nc1` [Compound 61], the IC50 was under 10 nM. `Cc1ccc(O)c(C)c1-n1c(N)c(C(N)=O)c2cc(S(=O)(=O)C3CC3)cnc21` [Compound 311] gave an IC50 of under 10 nM.
